# Source: ChEMBL document CHEMBL1159233, “Antitumor agents, 154. Cytotoxic and antimitotic flavonols from Polanisia dodecandra” (J Nat Prod, 1995)
# Calls of active or inactive are those of the source. The rule behind the calls is not given here.
# Legend:
# [1] = Displacement of [3H]colchicine from tubulin at 5 uM
# [2] = Inhibition of tubulin polymerization
# [3] = Displacement of [3H]colchicine from tubulin at 50 uM
# SF-268 = test: Growth inhibition of human SF268 cells; format: functional
# [4] = Growth inhibition of human DMS144 cells; format: functional
# P388 = test: Cytotoxicity against mouse P388 cells; format: functional; conditions: read-out: ED50 (the source's name)
# UO-31 = test: Growth inhibition of human UO31 cells; format: functional
# SR = test: Growth inhibition of human SR cells; format: functional
# [5] = Cytotoxicity against human PRMI7951 cells; format: functional; conditions: read-out: ED50 (the source's name)
# HCT-116 = test: Growth inhibition of human HCT116 cells; format: functional
# OVCAR-3 = test: Growth inhibition of human OVCAR-3 cells; format: functional
# NCI-H522 = test: Growth inhibition of human NCI-H522 cells; format: functional
# U-251 = test: Growth inhibition of human U251 cells; format: functional
# SNB-75 = test: Growth inhibition of human SNB75 cells; format: functional
# HCT-8 = test: Cytotoxicity against human HCT8 cells; format: functional
# SK-OV-3 = test: Growth inhibition of human SKOV3 cells; format: functional
# KB = test: Cytotoxicity against human KB cells; format: functional; conditions: read-out: ED50 (the source's name)
# NCI-H226 = test: Growth inhibition of human NCI-H226 cells; format: functional
# NCI-H460 = test: Growth inhibition of human NCI-H460 cells; format: functional
# TE-671 = test: Cytotoxicity against human TE671 cells; format: functional; conditions: read-out: ED50 (the source's name)
# A549 = test: Cytotoxicity against human A549 cells; format: functional
# SF-539 = test: Growth inhibition of human SF539 cells; format: functional
# SK-MEL-5 = test: Growth inhibition of human SK-MEL-5 cells; format: functional
# HL-60(TB) = test: Growth inhibition of human HL-60(TB) cells; format: functional
# HOP-62 = test: Growth inhibition of human HOP62 cells; format: functional
# [6] = read-out: ED50 (the source's name)
compound,measurement,setting,value
COc1ccc(-c2oc3cc(O)c(OC)c(O)c3c(=O)c2OC)cc1O [CENTAUREIDIN],Activity,[1],35%
same,IC50,[2],2000 nM
same,Activity,[3],76%
COc1cc([C@@H]2c3cc4c(cc3[C@H](O)[C@H]3COC(=O)[C@H]23)OCO4)cc(OC)c1OC,Activity,[1],82%
COc1ccc(-c2oc3c(OC)c(OC)c(OC)c(O)c3c(=O)c2OC)cc1O,GI50,SF-268,< 10 nM
same,TGI,SF-268; read-out: pTGI (converted),2820 nM
same,Activity,[1],59%
same,GI50,[4],< 10 nM
same,TGI,[4]; read-out: pTGI,< 10 nM
same,EC50,P388,0.055 µg/mL
same,GI50,UO-31,< 10 nM
same,TGI,UO-31; read-out: pTGI (converted),5750 nM
same,GI50,SR,< 10 nM
same,TGI,SR; read-out: pTGI (converted),112 nM
same,EC50,[5],0.55 µg/mL
same,IC50,[2],830 nM
same,GI50,HCT-116,< 10 nM
same,TGI,HCT-116; read-out: pTGI (converted),123 nM
same,GI50,OVCAR-3,< 10 nM
same,TGI,OVCAR-3; read-out: pTGI,< 10 nM
same,GI50,NCI-H522,< 10 nM
same,TGI,NCI-H522; read-out: pTGI,< 10 nM
same,GI50,U-251,< 10 nM
same,TGI,U-251; read-out: pTGI (converted),229 nM
same,GI50,SNB-75,< 10 nM
same,TGI,SNB-75; read-out: pTGI,< 10 nM
same,EC50,HCT-8; [6],4.4 µg/mL
same,GI50,SK-OV-3,< 10 nM
same,TGI,SK-OV-3; read-out: pTGI (converted),417 nM
same,EC50,KB,0.045 µg/mL
same,GI50,NCI-H226,61.7 nM
same,TGI,NCI-H226; read-out: pTGI (converted),363 nM
same,GI50,NCI-H460,< 10 nM
same,TGI,NCI-H460; read-out: pTGI (converted),138 nM
same,Activity,[3],89%
same,EC50,TE-671,0.069 µg/mL
same,EC50,A549; [6],0.6 µg/mL
same,GI50,SF-539,< 10 nM
same,TGI,SF-539; read-out: pTGI,< 10 nM
same,GI50,SK-MEL-5,< 10 nM
same,TGI,SK-MEL-5; read-out: pTGI (converted),1000 nM
same,GI50,HL-60(TB),< 10 nM
same,TGI,HL-60(TB); read-out: pTGI,< 10 nM
same,GI50,HOP-62,47.9 nM
same,TGI,HOP-62; read-out: pTGI (converted),4790 nM
COc1cc(-c2oc3c(OC)c(OC)c(OC)c(O)c3c(=O)c2OC)ccc1O,EC50,P388,6.52 µg/mL
same,EC50,[5],5.93 µg/mL
same,Activity,HCT-8,inactive
same,EC50,KB,8.38 µg/mL
same,EC50,TE-671,0.98 µg/mL
same,Activity,A549,inactive
